Laboratory results as given in patent US20180338955A1, “METHODS FOR REGULATION AND TREATMENT OF GLIOMA CELL MIGRATION AND GLIOBLASTOMA” (priority 2015, published 2018).
Entries after “also recorded” stand apart in the source; their conditions may differ. Values belong to the compound of their own block, whether it stands above or below them.

What was measured:
glioma xenografts = conditions: in vivo; cited from earlier work
U87 glioma cells = U87 glioma cells cultured on tenascin and vitronectin; cited from earlier work
human GSCs [1] = test: Migration of human GSCs on purified DRG axon cultures; format: cell-based; conditions: purified DRG axons, 72 hours
Protocol: To assess the effect of the Lck inhibitor on migrating glioma cells, GBM spheres were seeded on rat DRG cultures in Supplemented NB-A Medium containing 10% FBS. Spheres were allowed to attach for one hour. Cultures were treated with 500 nM of Lck inhibitor or DMSO vehicle for 72 hours. Samples were fixed in 4% formaldehyde for 10 minutes, permeabilized and blocked with 5% normal goat serum containing 0.3% Triton X-100 in 1×PBS (Sigma) at RT for 1 hour. The samples were stained overnight at 4° C. with Ki67 (Cell Signaling), GFAP (DAKO) and NF (EnCor Biotechnology). Area of glioma stem cell migration for each sample was calculated by normalizing the total area of migration to the interior area of the non-migrating sphere mass. Differences between groups were then confirmed using Student's test.

Fyn [2] = target: T1, Fyn (Homo sapiens, UniProt P06241); conditions: cited from earlier work
Target sequence in this assay (P06241 whole entry, species assumed): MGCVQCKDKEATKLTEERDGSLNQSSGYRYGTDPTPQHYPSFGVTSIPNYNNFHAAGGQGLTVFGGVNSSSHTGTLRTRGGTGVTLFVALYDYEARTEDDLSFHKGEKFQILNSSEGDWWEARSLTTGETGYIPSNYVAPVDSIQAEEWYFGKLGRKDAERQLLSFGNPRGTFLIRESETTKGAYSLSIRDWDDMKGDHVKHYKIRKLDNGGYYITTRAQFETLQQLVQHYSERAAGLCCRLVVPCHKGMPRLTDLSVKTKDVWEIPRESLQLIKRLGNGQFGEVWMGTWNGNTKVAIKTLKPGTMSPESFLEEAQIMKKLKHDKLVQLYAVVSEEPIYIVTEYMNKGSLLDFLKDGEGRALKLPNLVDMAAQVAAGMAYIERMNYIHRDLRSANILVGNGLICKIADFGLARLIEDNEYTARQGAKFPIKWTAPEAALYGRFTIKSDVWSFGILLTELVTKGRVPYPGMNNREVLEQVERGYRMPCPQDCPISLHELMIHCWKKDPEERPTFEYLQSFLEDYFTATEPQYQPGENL

Fyn [3] = target: T1, Fyn; test: Immunoprecipitation/Western blot, phosphorylation state of Fyn; format: cell-based; conditions: human glioma cells, 500 nm
Protocol: (§1) For immunoprecipitation studies, U87 MG cells treated with A77 or DMSO vehicle were lysed in 1×RIPA buffer containing protease and phosphatase inhibitors (Sigma). Lysates were cleared via centrifugation and were pre-cleared with TrueBlot anti-rabbit IgG beads (eBiosience) to remove non-specific binding. Primary antibodies against Lck, Src, Fyn, Lyn or Yes (Cell Signaling) were added and the lysates were incubated overnight at 4° C. with gentle rotation. The following day, TrueBlot anti-rabbit IgG (eBioscience) beads were added to the lysate and incubated at 4° C. for 2 hours. Immunoprecipitates were washed, solubilized in 2×Laemmli buffer and boiled for 5 minutes. The supernatants were separated on an 8% Bis-Tris SDS-PAGE gel, transferred to nitrocellulose and immunoblotted.
Target sequence in this assay (P06241 whole entry): as the sequence (P06241 whole entry, species assumed) above

[4] = tested on: human glioblastoma (hGSCs); test: Orthotopic xenograft mouse model of human glioblastoma; format: in vivo, Nu/J mice
Protocol: To determine the effect of inhibition of Lck signaling in human glioma formation in vivo, Applicants used an orthotopic xenograft mouse model of human glioblastoma (Singh et al., 2004; Valadez et al., 2014). Applicants injected under stereotactic guidance 200,000 hGSCs at coordinates −2.0 mm AP and +1.5 mm ML relative to Bregma. The Lck-I or the PBS/DMSO were administered through an Alzet pump in the lateral ventricle continuously for 4 weeks. Brains were formalin fixed and stained for human Ki67 4 weeks after the implantation.
Intracranial injections were performed using a stereotaxic apparatus (Kopf) on 8-week-old Nu/J mice initially sedated with 4% isoflurane and maintained with 2% isoflurane. After leveling the skull, a hole was drilled with a #72 micro drill bit (Kyocera) at coordinates −2.0 mm AP and +1.5 mm ML relative to Bregma. A 75 RN Hamilton syringe was then lowered to a depth of −2.5 mm DV at a rate of 0.5 mm per minute, and 200,000 primary GSCs from donor 2 resuspended in a total volume of 4 μl were injected at a rate of 0.5 μl per minute using a Stoelting Quintessiential Stereotaxic Injector. In order to reduce backflow, the syringe was allowed to rest for 2 minutes post-injection before it was withdrawn at a rate of 0.5 mm per minute, and the cavity was immediately sealed with bone wax (Ethicon). A subcutaneous pocket was formed, and an Alzet osmotic pump 1004 fitted with brain infusion kit 3 and containing either 1.175 mg of A77 (Axon Medchem) or DMSO/Kolliphor ELP vehicle was inserted near the left hind limb of the animal. A second hole was drilled at coordinates of +0.5 mm and +1.1 mm ML relative to Bregma with the same micro drill bit to allow placement of the brain infusion catheter in the right lateral ventricle. The brain infusion catheter was lowered into the brain and glued to the skull using Loctite 454 cyanoacrylate adhesive. The incision was sealed using veterinary tissue glue and a dab of antibiotic ointment was placed over the head and neck. Animals were monitored daily for weight loss, pain and distress. After four weeks, animals were euthanized with pentobarbital and perfused with 4% formaldehyde. Brains were harvested, post-fixed in 4% formaldehyde, and processed for paraffin embedding. Paraffin embedded tissue was sliced on a microtome to […] sections and placed on microscope slides. Tissues were stained for H&E and ki67 (Roche) using a Ventana Autostainer. Images were captured using a Zeiss Axiovert inverted microscope.

human GSCs [5] = test: xCELLigence impedance assay of cell spreading/migration; format: cell-based; conditions: 500 nM, versus DMSO
Protocol: The xCELLigence system was used to perform cell migration assays on the RTCA DP instrument. Electrical impedance due to cell migration is represented as cell index. GBM cells were seeded on fibronectin coated wells of the RTCA CIM-plate 16 (ACEA Biosciences) and allowed to attach and spread for 1 hour at room temperature. After 1 hour, wells were treated with DMSO vehicle or 500 nM Lck inhibitor. As cells migrated towards the lower chamber containing 10% FBS with DMSO vehicle or 500 nM Lck inhbitor, measurements were captured every 5 minutes. Cell index data was plotted overtime and the slope between 2 and 6 hours was calculated.

Lyn [6] = target: T2, Lyn (Homo sapiens, UniProt P07948); test: Immunoprecipitation/Western blot, phosphorylation state of Lyn; format: cell-based; conditions: human glioma cells, 500 nm
Protocol: as §1
Target sequence in this assay (P07948 whole entry): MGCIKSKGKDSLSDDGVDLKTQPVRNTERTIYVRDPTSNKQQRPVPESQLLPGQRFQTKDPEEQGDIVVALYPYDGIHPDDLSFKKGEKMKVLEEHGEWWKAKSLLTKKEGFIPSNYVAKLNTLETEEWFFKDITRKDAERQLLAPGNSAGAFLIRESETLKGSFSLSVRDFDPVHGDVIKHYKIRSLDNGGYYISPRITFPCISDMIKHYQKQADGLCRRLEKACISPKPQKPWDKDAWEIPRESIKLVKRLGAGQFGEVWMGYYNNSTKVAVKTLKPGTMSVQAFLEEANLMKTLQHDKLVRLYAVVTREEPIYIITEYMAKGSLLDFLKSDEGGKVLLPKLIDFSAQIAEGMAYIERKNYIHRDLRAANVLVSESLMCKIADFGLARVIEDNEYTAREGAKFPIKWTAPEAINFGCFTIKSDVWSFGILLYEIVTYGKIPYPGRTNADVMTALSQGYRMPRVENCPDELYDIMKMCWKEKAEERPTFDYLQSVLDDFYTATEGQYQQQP

human GSCs [7] = test: Pseudopodia (lamellipodia) formation of human GSCs on fibronectin; format: cell-based; conditions: fibronectin substrate, 500 nM, 2 hours, versus untreated/DMSO
Protocol: (§2) To assess pseudopodia formation, GBM stem cells were seeded on fibronectin coated (10 ug/ml, Sigma) glass chamber slides (NUNC) in the presence of serum for 2.5 hours. Cultures were treated with 500 nM of Lck inhibitor or DMSO vehicle for 2 hours and then fixed in 4% formaldehyde. Samples were permeabilized and blocked with 5% normal goat serum containing 0.3% Triton X-100 in 1×PBS (Sigma) at RT for 1 hour. The samples were stained overnight at 4° C. with Phospho-Paxillin (CellSignaling). The following day, secondary antibodies were applied at manufacturer recommended dilutions for 1 hour at RT (Jackson ImmunoResearch). Samples were subsequently stained with Rhodamine RedX Phalloidin (Life Technologies) and Hoescht 33342 (Life Technologies) following manufacturer's protocols. Slides were mounted with Aqua Poly/Mount (Polysciences) and imaged using a Zeiss confocal microscope. Adobe Photoshop was used to count the total number of pseudopodia, which included both axial and radial projections, per cell for each group. Differences between groups were confirmed using Student's t-test.

human GSCs [8] = test: Migration of human GSCs along parallel DRG axonal bundles (coverslips with parallel scratches); format: cell-based; conditions: human GSC-DRG axon co-cultures, versus DMSO control
Protocol: As inhibition of Lck signalling has a dramatic effect on pseudopodia extension and retraction, Applicants investigated whether Lck may also function to regulate the migration and invasion of human GSCs. […] To assess the effect of Lck signaling on the migration and interaction of hGSCs with DRG axons, Applicants seeded hGSCs on DRG axons and treated the cultures with Lck-I or PBS/DMSO for 72 hours. […] To quantify the effect of Lck inhibition on GSC migration, Applicants added GSCs on DRG axons with and without Lck-I and quantified the surface area covered by the migrating glioma cells using Image-J.

Lyn [9] = target: T2, Lyn; conditions: cited from earlier work
Target sequence in this assay (P07948 whole entry, species assumed): as the sequence (P07948 whole entry) above

phospho(Y118)-paxillin [10] = test: Immunocytochemistry of phospho(Y118)-paxillin in human GSCs; format: cell-based; conditions: 500 nM, 2 hours, versus control
Protocol: as §2

phospho(Y118)-paxillin [11] = test: Western blot of hGSC lysates for phospho(Y118)-paxillin; format: cell-based, human; conditions: hGSCs (GSC1, GSC2) on fibronectin, 500 nM, 2 hours
From the text: (§3) For total cell lysates, cultures were lysed in 1×SDS lysis buffer supplemented with protease and phosphatase inhibitors (Sigma). Lysates were sonicated and cleared by centrifugation. Samples were separated on 4-12% Bis-Tris SDS-PAGE gels (NuPAGE), transferred on to nitrocellulose and immunoblotted using the following primary antibodies: p(Y418)-Src family, Lck (D88), […], pCrkII (Cell Signaling), mortalin (a kind gift of Dr. Alice Cavanaugh), and β-actin (Sigma). A custom phospho-specific polyclonal antibody was generated against p(Y394)-Lck and affinity-purified against total Lck, Fyn and Lyn (Thermo Fisher). Secondary antibodies used were HRP-conjugate goat anti-mouse and goat anti-rabbit (Cell Signaling). Semi-quantitative analysis was conducted with FluorChem SP analytical software. Statistical significance was determined by the two-tailed Student's t-test.

phospho(Y394)-Lck = target: T3, phospho(Y394)-Lck (Homo sapiens, UniProt P06239); test: Western blot of hGSC lysates for phospho(Y394)-Lck; format: cell-based; conditions: hGSCs (GSC1, GSC2) on fibronectin, 500 nM, 2 hours
T3 construct: hGSCs isolated from two patients with glioblastomas (GSC1 and GSC2) left untreated or treated with 500 nM Lck-I for 2 hours; endogenous in cells; host or cells: primary human glioma stem cells (GSC1, GSC2) from two glioblastoma patients
Protocol: For total cell lysates, cultures were lysed in 1×SDS lysis buffer supplemented with protease and phosphatase inhibitors (Sigma). Lysates were sonicated and cleared by centrifugation. […] A custom phospho-specific polyclonal antibody was generated against p([MUT])-Lck and affinity-purified against total Lck, Fyn and Lyn (Thermo Fisher). Secondary antibodies used were HRP-conjugate goat anti-mouse and goat anti-rabbit (Cell Signaling). Semi-quantitative analysis was conducted with FluorChem SP analytical software. Statistical significance was determined by the two-tailed Student's t-test.

phospho(Y221)-CrkII = test: Western blot of hGSC lysates for phospho(Y221)-CrkII; format: cell-based, human; conditions: hGSCs (GSC1, GSC2) on fibronectin, 500 nM, 2 hours
From the text: as §3

human GSCs [12] = test: Invasion in Alvetex scaffold; format: cell-based; conditions: 500 nM, 72 hours, versus untreated
Protocol: Alvetex scaffolds were coated with fibronectin (10 μg/ml) for 2 hours at 37° C. 750,000 GBM cells were plated in the center of each scaffold and allowed to attach for one hour. Cultures were grown in Supplemented NB-A Medium containing 10% FBS. Cultures were treated with 500 nM of Lck inhibitor or DMSO vehicle for 72 hours. Samples were fixed in 4% formaldehyde for 10 minutes, permeabilized with 0.1% Triton X-100 and blocked with 1% BSA-PBS for 30 minutes at room temperature. Samples were subsequently stained with Rhodamine RedX Phalloidin (Life Technologies) and Hoescht 33342 (Life Technologies) following manufacturer's protocols. Slides were mounted with Aqua Poly/Mount (Polysciences) and imaged using a Zeiss confocal microscope.

[13] = continuous infusion in the lateral ventricle for 4 weeks, n=5

T3 sequence (P06239 whole entry): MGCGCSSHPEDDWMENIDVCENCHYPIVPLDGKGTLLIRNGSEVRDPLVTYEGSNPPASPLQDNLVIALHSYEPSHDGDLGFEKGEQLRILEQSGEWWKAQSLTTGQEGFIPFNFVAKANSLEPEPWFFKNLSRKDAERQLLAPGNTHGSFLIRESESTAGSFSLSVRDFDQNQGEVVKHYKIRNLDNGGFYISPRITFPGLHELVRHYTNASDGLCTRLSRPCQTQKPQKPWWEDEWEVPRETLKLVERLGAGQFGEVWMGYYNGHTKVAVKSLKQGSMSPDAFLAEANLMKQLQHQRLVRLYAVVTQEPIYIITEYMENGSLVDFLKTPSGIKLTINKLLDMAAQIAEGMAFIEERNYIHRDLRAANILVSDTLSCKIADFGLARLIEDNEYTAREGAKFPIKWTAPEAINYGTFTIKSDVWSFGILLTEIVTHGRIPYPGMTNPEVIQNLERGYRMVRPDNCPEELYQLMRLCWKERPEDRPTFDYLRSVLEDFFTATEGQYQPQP

Structure (SMILES): CC(C)[C@H]1C(=O)N[C@@H](CCCN=C(N)N)C(=O)NCC(=O)N[C@@H](CC(=O)O)C(=O)N[C@H](Cc2ccccc2)C(=O)N1C [EMD121974, Cilengitide]
effect on glioma xenografts (glioma xenografts): significant regression
apoptosis (U87 glioma cells): induces apoptosis

body condition score ([4]; all treated animals, 4 weeks): excellent
Structure (SMILES): COc1cc(-c2nn([C@H]3CC[C@H](N4CCN(C(C)=O)CC4)CC3)c3ncnc(N)c23)ccc1NC(=O)c1cc2ccccc2n1C [Lck-I, A770041]
total area of migration (surface area covered by migrating glioma cells) (human GSCs [1]; 500 nM): significant reduction
integration of tumor cells within the axonal network (human GSCs [1]; n=6): almost complete lack of integration; also recorded: limited integration and expansion
migration of individual glioma cells (GFAP+/Ki67+ migrating tumor cells) (human GSCs [1]; versus control): inhibition of migration; also recorded: significant decrease
specificity for Lck over Fyn (Fyn [2]): 300 fold
phosphorylation state of Fyn (Fyn [3]): does not affect; also recorded: no effect
side effects of local administration ([4]; continuous infusion in the lateral ventricle for 4 weeks): no apparent side effects
invasion/migration of human glioma cells within the brain parenchyma [4, 13]: minimal invasion/integration; also recorded: significant inhibition of tumor migration and invasion; also recorded: minimal invasion and migration
tissue necrosis [4, 13]: absence of tissue necrosis; also recorded: lack of focal necrosis
tumor formation ([4]; continuous infusion in the lateral ventricle for 4 weeks, versus PBS/DMSO, n=5): complete lack of solid tumor formation; also recorded: significant inhibition of tumor formation
human GSC migration (surface area by electrical impedance) (human GSCs [5]): significant reduction
cell spreading (cell processes) after addition (human GSCs [5]; fibronectin-coated plate): immediate retraction of cell processes
phosphorylation state of Lyn (Lyn [6]): does not affect; also recorded: no effect
number of pseudopodia (lamellipodia) per cell (human GSCs [7]): significantly reduced; also recorded: significantly lower
migration along parallel axonal bundles (finger-like projections) (human GSCs [8]): complete inhibition of migration; also recorded: complete ablation of the finger-like projections
specificity for Lck over Lyn (Lyn [9]): 8 fold
phospho-paxillin(Y118) staining at focal adhesions (phospho(Y118)-paxillin [10]): reduced; also recorded: almost complete absence
phosphorylation level of paxillin, phospho(Y118)-paxillin (phospho(Y118)-paxillin [11]): significantly reduced; also recorded: significant reduction
phosphorylation level of Lck, phospho(Y394)-Lck (phospho(Y394)-Lck): significantly reduced; also recorded: significant reduction
phosphorylation level of CrkII, phospho(Y221)-CrkII (phospho(Y221)-CrkII): significantly reduced; also recorded: significant reduction
invasion (depth/total area of invasion within scaffold, z-stack confocal) (human GSCs [12]): significant inhibition; also recorded: significant reduction
